This is an account of results in PubChem BioAssay (NCI).

Common to all, as to test: NCI anticancer screen, dose series, 48 h
Test [1] concerns T-47D breast.
The subject of test [2] is SK-MEL-2 melanoma.
Test [3] deals with ACHN renal.
Test [4] deals with 786-0 renal.
Test [5] deals with PC-3 prostate.
In test [6] the test system is CAKI-1 renal.
Test [7] deals with NCI-H460 lung.
Test [8] relates to MDA-MB-435.
For test [9], the system named is MDA-N.
In test [10] the test system is IGROV1 ovarian.
In test [11] the test system is HCT-116 colon.

Structures are written as SMILES.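 Assay format: 96-well plates, 48-hour exposure. The concentration for full growth arrest is given as TGI.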 Where only a bound is given, the exact number is not on record here.

With `CCOC(=O)N(CC)c1c(C(F)(F)F)cc(-c2ccccc2)[nH]c1=O`, the TGI in test [1], in test [2], in [3], in test [4], in test [5] and in [6] was greater than 100 µM each time. Besides, the TGI was greater than 100 µM in [7]; 56.7 µM in test [8]; 53.9 µM in test [9]; greater than 100 µM in test [10]; greater than 100 µM in test [11].

`CC1(C)Oc2ccc(Cl)cc2C12CC2`: the TGI in test [1] turned out to be 73.8 µM; in test [2] it was 33.4 µM; in test [3], 30.1 µM; in [4] it was 31.3 µM; in [5], 27.9 µM; in [6], 31.2 µM. For the same molecule, the TGI in test [7] turned out to be 39.7 µM; in test [8], 32.6 µM; in test [9], 35.9 µM; in test [10], 28.7 µM; in test [11] it was 29 µM.

Consider `CC(C)OC(=O)c1ccc(CCC2=CC(=O)C(Br)=CC2=O)cc1`, for which the TGI came out at 45 µM in [1]; 41.7 µM in test [2]; 27.8 µM in [3]; 30.2 µM in [4]; 31.8 µM in test [5]; 38.4 µM in [6]. Besides, the TGI is 46.6 µM in test [7]; 32.9 µM in test [8]; 30.9 µM in test [9]; 27.8 µM in [10]; 30.6 µM in test [11].

For `COc1ccc(N2C(=O)C3c4[nH]c5ccccc5c4C4CCC(C(C)C)CC4C3C2=O)cc1` (configuration not stated), the TGI in [1], in test [2], in test [3], in test [4], in test [5] and in [6] was greater than 100 µM in each case. Further, the TGI in test [7], in test [8], in [9], in [10] and in test [11] was greater than 100 µM each time.

`O=C(c1ccc(Cl)cc1)N1N=C(c2ccc(Cl)cc2)CC1(O)c1cc(F)c(Cl)cc1Cl` (configuration not stated): the TGI in [1] is greater than 100 µM; in test [2] it was 39 µM; in [3] it was 62.2 µM; in test [4], greater than 100 µM; in test [5], greater than 100 µM; in [6] it was 39.6 µM. For the same molecule, the TGI in test [7] was greater than 100 µM; in test [8], 39.5 µM; in test [9], 28.5 µM; in test [10], greater than 100 µM; in [11], 26.4 µM.

Turning to `COc1ccc2[nH]c(C(=O)N3CC(CCl)c4ccc([N+](=O)[O-])cc43)cc2c1` (configuration not stated), the TGI in test [1], in [2], in [3], in test [4], in test [5] and in test [6] was greater than 100 µM each time. For the same molecule, the TGI in test [7], in test [8], in test [9], in test [10] and in test [11] was greater than 100 µM each time.

Regarding `CCCCNC(=S)/N=C/c1c(O)c2ccccc2oc1=O`, the TGI in test [1], in [2], in test [3], in [4], in test [5] and in [6] was greater than 100 µM each time. Moreover, the TGI in test [7], in test [8], in test [9], in test [10] and in test [11] was greater than 100 µM each time.

Take `C1OCN2c3nonc3N3COCN4c5nonc5N1C2C43` (configuration not stated): the TGI in test [1], in test [2], in test [3], in [4], in test [5] and in [6] was greater than 100 µM each time. Further, the TGI in [7], in [8], in test [9], in [10] and in [11] was greater than 100 µM in each case.

Turning to `CCOC(=O)/C=C(/C(=O)OCC)n1c(=O)c(C)cn(C2CC(N=[N+]=[N-])C(CO)O2)c1=O` (configuration not stated), the TGI in test [1] was greater than 100 µM; in test [2] it was 72 µM; in [3], greater than 100 µM; in [4] it was 72 µM; in test [5] it was 32.8 µM; in [6], 83.9 µM. For the same molecule, the TGI in test [7], in test [8], in [9], in [10] and in [11] was greater than 100 µM in each case.

Take `[N-]=[N+]=C1CNC(=O)NC1=O`: the TGI in [1], in [2], in [3], in test [4], in [5] and in [6] was greater than 100 µM in each case. The TGI in test [7], in [8], in test [9], in test [10] and in test [11] was greater than 100 µM each time.

In the case of `Cc1ccc(S(=O)(=Nc2ccccc2)C(C(C)C)C(C)(C)Cl)cc1` (configuration not stated), the TGI is greater than 50 µM in test [1]; 43.9 µM in test [2]; greater than 50 µM in test [3]; greater than 50 µM in test [4]; greater than 50 µM in test [5]; greater than 50 µM in test [6]. Also, the TGI in test [7] is 45.4 µM; in test [8], 38.6 µM; in [9], greater than 50 µM; in test [10] it was greater than 50 µM; in [11], greater than 50 µM.

Regarding `c1ccc(C(=NNc2nc3ccccc3[nH]2)c2ccccn2)nc1`, the TGI was greater than 100 µM in test [1]; greater than 100 µM in [2]; 0.698 µM in test [3]; greater than 100 µM in test [4]; 5.43 µM in test [5]; 2.07 µM in test [6]. Besides, the TGI in test [7] is greater than 100 µM; in [8], greater than 74 µM; in test [9] it was greater than 100 µM; in [10], 2.64 µM; in test [11], 10.2 µM.
